Results taken from patent US20250082611A1, “DOSING REGIMEN FOR AN NLRP3 INHIBITOR IN THE TREATMENT OF OSTEOARTHRITIS” (Novartis AG, priority 2021, published 2025).

How the values were obtained:
CYP3A = test: In vitro metabolism studies, CYP3A induction and substrate; assay type: in vitro ADME
Excerpt: Therefore, investigators, at their discretion, may administer concomitant medications known to be metabolized by CYP3A4/5. Patients receiving such medications may require dose titration or increase of the concomitant drug. […] Investigators may, at their discretion, co-administer known inhibitors of CYP3A, but their duration should be kept as short as possible, and patients must be closely monitored.

[1] = test system: IL-1β production in PMA-differentiated THP-1 cells; test: IL-1β production in PMA-differentiated THP-1 cells stimulated with gramicidin (hTHP-1 assay, 2% fetal bovine serum); assay type: cell-based; conditions: Homo sapiens, hTHP-1 assay containing 2% fetal bovine serum
Method: THP-1 cells were purchased from the American Type Culture Collection and sub-cultured according to instructions from the supplier. Cells were cultured in complete RPMI 1640 (containing 10% heat inactivated FBS, penicillin (100 units/ml) and streptomycin (100 μg/ml)), and maintained in log phase prior to experimental setup. Prior to the experiment, compounds were dissolved in dimethyl sulfoxide (DMSO) to generate a 30 mM stock. The compound stock was first pre-diluted in DMSO to 3, 0.34, 0.042 and 0.0083 mM intermediate concentrations and subsequently spotted using Echo550 liquid handler into an empty 384-well assay plate to achieve desired final concentration (e.g. 100, 33, 11, 3.7, 1.2, 0.41, 0.14, 0.046, 0.015, 0.0051, 0.0017 μM). DMSO was backfilled in the plate to achieve a final DMSO assay concentration of 0.37%. The plate was then sealed and stored at room temperature until required.
THP-1 cells were treated with PMA (Phorbol 12-myristate 13-acetate) (20 ng/ml) for 16-18 hours. On the day of the experiment the media was removed and adherent cells were detached with trypsin for 5 minutes. Cells were then harvested, washed with complete RPMI 1640, spun down, and resuspended in RPMI 1640 (containing 2% heat inactivated FBS, penicillin (100 units/ml) and streptomycin (100 μg/ml). The cells were plated in the 384-well assay plate containing the spotted compounds at a density of 50,000 cells/well (final assay volume 50 μl). Cells were incubated with compounds for 1 hour and then stimulated with gramicidin (5 μM) (Enzo) for 2 hours. Plates were then centrifuged at 340 g for 5 min. Cell free supernatant (40 μL) was collected using a 96-channel PlateMaster (Gilson) and the production of IL-1β was evaluated by HTRF (cisbio). The plates were incubated for 18 h at 4° C. and read using the preset HTRF program (donor emission at 620 nm, acceptor emission at 668 nm) of the SpectraMax i3x spectrophotometer (Molecular Devices, software SoftMax 6). A vehicle only control and a dose titration of CRID3 (100-0.0017 μM) were run concurrently with each experiment. […]

[2] = First-in-human study: safety and tolerability in healthy subjects; assay type: in vivo
Excerpt: The study design comprised of 4 parts: single ascending dose (SAD; Part A), relative bioavailability of tablet formulations (Part B), multiple ascending dose (MAD; Part C), and relative bioavailability and food effect (Part D) (FIG. 2; RF=Reference Formulation (crystalline suspension); T2=Test Formulation 2 (crystalline tablet); T3=Test Formulation 3 (spray-dried dispersion suspension); T4=Test Formulation 4 (encapsulated crystalline tablet)). In each group of Parts A and C, 8 subjects were randomized in a 3:1 ratio to receive Compound IA (6 subjects) or matching placebo (2 subjects).
For Part A, eight cohorts of eight eligible subjects were enrolled. Each subject received a single oral dose of Compound IA (3, 10, 30, 100, 300 mg of crystalline suspension and 100, 300, 600 mg of spray-dried dispersion (SDD) under fasted conditions. As this was a FIH study, two sentinel subjects were dosed first, at least 24 hours before the rest of the cohort was dosed, to assure maximum safety. Part B was skipped because the data from Part A provided for an adequate comparison of crystalline and SDD formulations.
For part C, eligible subjects were enrolled in six different cohorts. […] Subjects were dosed in Part C following review available safety, tolerability and PK data from preceding groups in Part A.
Safety assessments in all parts of the study included adverse event (AE) reporting using the Medical Dictionary for Regulatory Activities (version 22.1), clinical laboratory tests (biochemistry, hematology, and urinalysis), vital signs, electrocardiograms (ECGs), physical examination and skin biopsy (as applicable).

SMILES: CC(C)(O)c1ncc([S@](N)(=O)=NC(=O)Nc2c3c(cc4c2CCC4)CCC3)s1 [Compound IA, (R)-N′-((1,2,3,5,6,7-hexahydro-s-indacen-4-yl)carbamoyl)-2-(2-hydroxypropan-2-yl) thiazole-5-sulfonimidamide]
- CYP3A substrate status (CYP3A): substrate of CYP3A
- induction of metabolism of CYP3A substrates (CYP3A): might have the potential to induce
- IC50 [1]: 8 to 40 nM
- subjects with TEAEs considered related to study drug ([2]; 21/94 who received Compound IA): 22%
- subjects reporting treatment emergent adverse events (TEAEs) ([2]; Compound IA arm, 66/94 subjects): 70%
- skin rash ([2]; dosed once daily with 30, 100, and 200 mg): skin rashes have been observed in some participants
- dose relation of maculopapular and/or pruritic skin rashes ([2]; human, in vivo): most frequently reported at the higher multiple dose levels
- intensity of skin rash/pruritus TEAEs ([2]; human, in vivo): mild to moderate
- subjects with mild, non-clinically significant decrease in neutrophil and leukocyte counts ([2]; human, in vivo): 27 subjects
- vital signs, 12-lead ECG, 24-hour Holter monitoring, physical examination ([2]; human, in vivo): No other clinically relevant findings
- subjects with skin rash and/or pruritus ([2]; multiple dose 30 mg QD): 2 n
- subjects with skin rash and/or pruritus ([2]; multiple dose 50 mg BID): 3 n
- subjects with skin rash and/or pruritus ([2]; multiple dose 100 mg QD): 3 n
- subjects with skin rash and/or pruritus ([2]; multiple dose 200 mg QD): 2 n
- neutrophil and leukocyte counts ([2]; non-clinically significant, occasionally noted): Mild decreases
- subjects with TEAEs of maculopapular skin rash and/or pruritus (adverse events of special interest) ([2]; of 122 enrolled, all received Compound IA): 12 subjects
- tolerability ([2]; single and multiple oral doses, healthy subjects): generally well tolerated
- subjects with skin rash and/or pruritus ([2]; single dose 100 mg): 1 n
- subjects with skin rash and/or pruritus ([2]; single dose 600 mg): 1 n
- deaths or serious adverse events ([2]; whole study): No deaths or serious adverse events (SAEs) were reported
